From US8629277B2, “Styrenyl 1,2,4-oxadiazole compounds” (Piramal Enterprises Limited, priority 2010, dated 2014)

Key:
Ba/F3 Bcr-Abl/F359V = molecular target: T1, Ba/F3 Bcr-Abl/F359V (Homo sapiens, UniProt P00519, F359V, cells depend on it); assay: Cell proliferation and cytotoxicity CCK-8 assay; format: cell-based; details: mouse, 72 h
T1 construct: fused on or other part: P11274 (Breakpoint cluster region protein)

Ba/F3 Bcr-Abl/Y253H = molecular target: T2, Ba/F3 Bcr-Abl/Y253H (Homo sapiens, UniProt P00519, Y253H, cells depend on it); assay: Cell proliferation and cytotoxicity CCK-8 assay; format: cell-based; details: mouse, 72 h
T2 construct: fused on or other part: P11274 (Breakpoint cluster region protein)

K562 = assay: Flow cytometric analysis of apoptosis (PI staining); format: cell-based, human
Procedure: Effect of the Compounds of Present Invention in Bcr-Abl Mutated Imatinib Mesylate-Resistant Cell Lines on Cell Cycle and Apoptosis Using Flow Cytometry.
The assay was carried out as in reference, FEBS Letters, 2007, 581, 7, 1329-1334. […] At the end of incubation, cells were harvested by centrifugation at 1000 rpm for 10 minutes, washed with phosphate buffered saline (PBS) and gradually resuspended in 70% ice-cold ethanol (to facilitate the permeablisation of stains). Cell suspension was stored for a minimum period of 4 h before staining with propidium iodide (PI). Fixed cells were stained with PI (80 μg/mL) in presence of RNase A (50 μg/mL), and read on Becton Dickinson FACS Calibur (USA) for cell cycle analysis.

Ba/F3 Bcr-Abl/T315I = assay: In-vivo efficacy in imatinib-resistant xenograft model in SCID mice; details: 200 mpk b.i.d., p.o.
Procedure: Cell lines Ba/F3 transfectants expressing full-length wild type imatinib sensitive (Ba/F3 Bcr-Abl/WT) or mutated imatinib resistant (Ba/F3 Bcr-Abl/T315I) were used in this study.
Required compound was weighed and admixed with 0.5% (w/v) carboxymethylcellulose (CMC) and triturated with Tween-20 (secundum artum) with gradual addition of water to make up the final concentration.
Ba/F3 Bcr-Abl/WT cells and Ba/F3 Bcr-Abl/T315I cells were grown in RPMI1640 medium containing 10% fetal calf serum in 5% CO2 incubator at 37° C. Cells were pelleted by centrifugation at 1000-rpm for 10 minutes. Cells were resuspended in saline to get a count of 80-100×10^6 cells per mL, 0.2 mL of this cell suspension was injected by subcutaneous (s.c.) route in SCID mice. Mice were observed alternate days for palpable tumor mass. Once the tumor size reached a size of 5-7 mm in diameter, animals were randomized into respective treatment groups. Dose of control or test compound was administered every day. Tumor size was recorded at 2-5 day intervals. Tumor weight (mg) was estimated according to the formula for a prolate ellipsoid: {Length (mm)×[width (mm)^2]×0.5} assuming specific gravity to be one and π to be three. Tumor growth in compound treated animals is calculated as T/C (Treated/Control)×100% and Growth inhibition Percent (GI %) was [100−T/C %].

CRKL protein [1] = assay: Inhibition of phosphorylation of CRKL protein, Western blot, E255V cell line; format: cell-based; details: 72 h, FIG. 5, FIG. 6B
Procedure: (§1) Phospho-CRKL monitoring has been recognized as a prognostic marker in CML patients treated with first and second generation Bcr-Abl inhibitors (Haematologica, 2008, 93, 5, 765-769). The assay was carried out using Western blot analysis according to the reference, Analytical Biochemistry, 1981, 112, 2, 195-203, with certain modifications.
(§2) Western blot analysis was performed to decipher the mechanism of action of compounds of the present invention. […] The cells were incubated in a humidified incubator for 2-4 h at 37° C. Subsequently, cells were treated with respective concentrations of the compounds. Cells were then incubated for 72 h. Following the incubation, cells were harvested, washed with ice-cold phosphate buffered saline (PBS) and lysed with cold Cell Lytic buffer (Sigma Aldrich) supplemented with complete protease inhibitor cocktail (Roche, Germany). The protein extracts were obtained after centrifugation at 14,000 rpm at 4° C. (30 min). Aliquots of the resulting extracts were analyzed for their protein content using Bradford Reagent (Sigma) as per the manufacturer's instructions. Equivalent protein samples (70 μg) were loaded on 10% Tris-glycine gels and resolved at 100 V for 2 h in a buffered solution (24.9 mM Tris base, 250 mM glycine, 0.1% SDS (sodium dodecyl sulfate)). […]

CRKL protein [2] = assay: Inhibition of phosphorylation of CRKL protein, Western blot, M351T cell line; format: cell-based; details: FIG. 6B
Procedure: as §1, §2

CRKL protein [3] = assay: Inhibition of phosphorylation of CRKL protein, Western blot, Y253H cell line; format: cell-based; details: FIG. 6B
Procedure: as §1, §2

T1 sequence (P00519 whole entry F359V, the tested form may be a part): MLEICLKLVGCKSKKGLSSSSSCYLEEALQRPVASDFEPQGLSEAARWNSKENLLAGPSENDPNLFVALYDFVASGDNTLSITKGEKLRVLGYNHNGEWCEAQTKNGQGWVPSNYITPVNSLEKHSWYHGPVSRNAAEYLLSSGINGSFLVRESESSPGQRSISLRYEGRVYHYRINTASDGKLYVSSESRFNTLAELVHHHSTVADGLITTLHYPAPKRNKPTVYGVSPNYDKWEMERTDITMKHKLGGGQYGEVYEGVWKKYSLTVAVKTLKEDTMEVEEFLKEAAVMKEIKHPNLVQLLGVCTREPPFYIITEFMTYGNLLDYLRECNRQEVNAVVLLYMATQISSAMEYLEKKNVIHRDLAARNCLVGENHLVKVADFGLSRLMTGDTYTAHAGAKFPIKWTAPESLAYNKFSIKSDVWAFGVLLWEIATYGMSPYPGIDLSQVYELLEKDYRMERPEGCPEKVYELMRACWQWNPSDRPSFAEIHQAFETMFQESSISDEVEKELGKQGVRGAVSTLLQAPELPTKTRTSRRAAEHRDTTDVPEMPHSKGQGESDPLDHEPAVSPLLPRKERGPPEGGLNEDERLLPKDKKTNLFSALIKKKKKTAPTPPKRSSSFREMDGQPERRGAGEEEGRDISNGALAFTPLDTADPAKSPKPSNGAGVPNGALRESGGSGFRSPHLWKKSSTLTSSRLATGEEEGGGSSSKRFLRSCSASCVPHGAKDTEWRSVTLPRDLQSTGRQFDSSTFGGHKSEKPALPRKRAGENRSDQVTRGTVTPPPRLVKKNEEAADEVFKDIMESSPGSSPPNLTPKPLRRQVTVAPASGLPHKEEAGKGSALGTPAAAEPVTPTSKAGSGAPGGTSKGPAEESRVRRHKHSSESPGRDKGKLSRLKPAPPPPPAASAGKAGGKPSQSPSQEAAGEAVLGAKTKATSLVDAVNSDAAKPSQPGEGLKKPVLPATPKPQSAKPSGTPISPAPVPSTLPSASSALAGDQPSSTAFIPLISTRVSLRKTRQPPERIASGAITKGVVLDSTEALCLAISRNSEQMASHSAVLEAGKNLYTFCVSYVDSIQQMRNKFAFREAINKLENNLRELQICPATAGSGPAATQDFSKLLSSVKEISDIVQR
T2 sequence (P00519 whole entry Y253H, the tested form may be a part): as the sequence (P00519 whole entry F359V, the tested form may be a part) above, with Y253H, V359F counted along it

SMILES: Oc1ccc(C=Cc2nc(Cc3ccccc3)no2)cc1O [Compound of Example 4, 4-[2-(3-Benzyl-[1,2,4]oxadiazol-5-yl)-vinyl]-benzene-1,2-diol]
- GI50 (Ba/F3 Bcr-Abl/F359V): 3000 ± 700 nM
- GI50 (Ba/F3 Bcr-Abl/Y253H): 2500 ± 750 nM
- % Apoptosis by Flow Cytometry Analysis (K562; 3X IC50, 96 h time point): 10%
- % Apoptosis by Flow Cytometry Analysis (K562; 5X IC50, 48 h time point): 12.2%
- % Apoptosis by Flow Cytometry Analysis (K562; 5X IC50, 96 h time point): 5.2%
- Tumor growth inhibition percent (% GI) Ba/F3 Bcr-Abl/T315I (Ba/F3 Bcr-Abl/T315I): 65%

SMILES: CCCc1noc(C=Cc2ccc(O)c(O)c2)n1 [Compound of Example 3, 4-[2-(3-Propyl-[1,2,4]oxadiazol-5-yl)-vinyl]-benzene-1,2-diol]
- GI50 (Ba/F3 Bcr-Abl/F359V): 2000 ± 420 nM
- GI50 (Ba/F3 Bcr-Abl/Y253H): 1700 ± 780 nM
- % Apoptosis by Flow Cytometry Analysis (K562; 3X IC50, 96 h time point): 5%
- % Apoptosis by Flow Cytometry Analysis (K562; 5X IC50, 48 h time point): 12.7%
- % Apoptosis by Flow Cytometry Analysis (K562; 5X IC50, 96 h time point): 3.4%
- phosphorylation of CRKL protein (Tyr-207) (CRKL protein [1]): inhibit
- phospho-CRKL (CRKL protein [2]): inhibit
- phospho-CRKL (CRKL protein [3]): inhibit
- Tumor growth inhibition percent (% GI) Ba/F3 Bcr-Abl/T315I (Ba/F3 Bcr-Abl/T315I): 54%
